The source of these data is publication PMC7160362, “A Polyamine-Based Dinitro-Naphthalimide Conjugate as Substrates for Polyamine Transporters Preferentially Accumulates in Cancer Cells and Minimizes Side Effects in vitro and in vivo” (Frontiers in Chemistry, 2020).

Read-outs that look alike come from different tables or passages of the source. Where only a bound is given, the exact number is not on record here.

In experiment [1] the test system is HL-7702 (normal liver cell). Kind of experiment: MTT cytotoxicity on matched normal cells. Format: cell-based. The note with it: for SI (selectivity index), range over Snu-368 and Snu-739: HL-7702 versus Snu-368 and Snu-739. The procedure:
(§1) We incubated hepatic carcinoma (Snu-368 and Snu-739), breast carcinoma (MDA-MB-231 and MCF-7), cisplatin-sensitive lung cancer cells A549, and cisplatin-resistant lung cancer cells A549cisR in 96-well plates in a 5% CO2 atmosphere at 37°C for 24 h (5,000 cells/well). After adding drugs in freshly prepared culture medium (100 μl) and incubating for another 48 h, we added 20 μl MTT (5 mg/ml) and incubated for another 3 h. At last, after the medium was removed, 150 μl DMSO was added. By using a Bio-Rad 680 microplate reader, the absorbance was measured at 570 nm and the IC50 values were calculated using the GraphPad Prism software based on three parallel experiments.
The selectivity for cancer cells over normal healthy cells is important for ideal anticancer agents, thereby mitigating undesired toxic side effects associated with chemotherapy. The selectivity of polyamine-based dinitro-naphthalimide conjugates 5a-5c was evaluated by Snu-368 and Snu-739 (hepatic carcinoma), and the matched normal cells HL-7702 (normal liver cell). Moreover, dinitro-naphthalimide conjugates 5a-5c (SI 1.94–7.47) show lower cytotoxicity in normal cells.

Experiment [2] concerns MCF-7 cells (breast carcinoma). Kind of experiment: MTT cytotoxicity assay. Format: cell-based. The note with it: MTT, 48 h. The procedure: as §1
(§2) In vitro assays were firstly conducted to evaluate the inhibitory effect of polyamine-based naphthalimide conjugates 5a-5c, 7a-7b, and 11a-11b on six cancer cell lines, namely, Snu-368 and Sun-739 (hepatoma cell line), MCF-7 (breast carcinoma), MDA-MB-231 (triple negative breast cancer), cisplatin-sensitive lung cancer A549, and resistant A549cisR cells by using traditional MTT tests. Two classic antitumor agents in clinic trials, amonafide and cisplatin, were chosen as the reference drugs (Table 1). The preliminary structure–activity relationship (SAR) can be obtained from the in vitro biological results.
Background: Formazan colour is commonly taken as a measure of viable cells.

In experiment [3] the test system is cisplatin-resistant lung cancer cells A549cisR. The experiment is described as follows: MTT cytotoxicity assay. The format is cell-based. The note with it: for RF (resistance factor): IC50 in A549cisR cells/IC50 in A549 cells; for IC50: MTT, 48 h. Here is the method: as §1, §2
The subject of experiment [4] is cisplatin-sensitive lung cancer cells A549. Kind of experiment: MTT cytotoxicity assay. The format is cell-based. As to conditions: MTT, 48 h. The procedure: as §1, §2
The test system of experiment [5] is MDA-MB-231 cells (triple negative breast cancer). The experiment is described as follows: MTT cytotoxicity assay. The format is cell-based. The note with it: MTT, 48 h. The procedure: as §1, §2
The test system of experiment [6] is Snu-368 cells (hepatic carcinoma). The experiment is described as follows: MTT cytotoxicity assay. Format: cell-based. The note with it: MTT, 48 h. Here is the method: as §1, §2
Experiment [7] has as its system Snu-739 cells (hepatic carcinoma). Kind of experiment: MTT cytotoxicity assay. The note with it: MTT, 48 h. The format is cell-based. The procedure:
as §1, §2

For another experiment, the system named is HCC xenografts. The experiment is described as follows: In vivo antitumor assay, HCC xenografts. The note with it: 5 mg/kg, tail vein, once every day for 7 days. From the text:
Healthy BALB/c mice (Cat. SCXK 2016-0006, Beijing, China) aged 5 weeks were used for the determination of anticancer activity. We obtained BALB/c mice from the Laboratory Animal Center, Academy of Military Medical Science. They were raised in compliance with the Guide for the Care and Use of Laboratory Animals. The weight of healthy BALB/c mice is 18–22 g.
We firstly injected HCC cells with 1 × 10^6 cells per mouse to determine the anticancer activity. After a week, the tumors increased to 80–120 mm^3. The mice were divided into four groups for 5c (3 mg/kg), 5c (5 mg/kg), the positive control amonafide (5 mg/kg), or the negative control physiological saline. We injected 5c or amonafide via the tail vein every day for a total of seven treatments. Body weight was determined every day. And then the mice were sacrificed after 7 days. The tumor tissues were weighed and the inhibition rate [((average tumor weight of negative control group – average tumor weight of the drug treated or positive control group)/average tumor weight of control group) × 100] was calculated. The organ index [(organ weight/body weight) × 100%] was also counted including heart, liver, kidney, lung, and spleen at the last day. Both 5c and amonafide were dissolved in glucose injection. And they were used immediately after preparation.
The highest FI levels in Snu-739 also indicate a significant therapy for HCC. Therefore, HCC animal models were used to test the in vivo antitumor activities. Mice bearing HCC xenografts were treated with 5c (3 mg/kg), 5c (5 mg/kg), the positive control amonafide (5 mg/kg), and normal saline (negative control) once every day for 7 days by tail vein (Figure 3).

Where [8] appears, read: Homo sapiens, L02, read-out: IC50 HL-7702.

With `O=C1c2cc([N+](=O)[O-])cc3cc([N+](=O)[O-])cc(c23)C(=O)N1CCCCNCCCNC1CCCCC1` [5a], in experiment [1], the “SI (selectivity index) IC50 in HL-7702/IC50 in Snu-368” value is reported as 2.14. Further, the “SI (selectivity index) IC50 in HL-7702/IC50 in Snu-739” value in experiment [1] was found to be 2.92. In addition, the IC50 (as a rule, the concentration at which inhibition is half-maximal) is 6.3 ± 0.23 µM in experiment [1] (setting [8]); 2.3 ± 0.18 µM in experiment [2] (Homo sapiens, MCF7); 3.62 ± 0.15 µM in experiment [3]; 2.17 ± 0.2 µM in experiment [4] (Homo sapiens, A549); 1.19 ± 0.12 µM in experiment [5] (Homo sapiens, MDA-MB-231); 2.94 ± 0.06 µM in experiment [6]. Half-maximal inhibition in experiment [7] (SNU-739) (IC50) was put at 2.16 ± 0.1 µM. Moreover, in experiment [3], the “RF (resistance factor)” value is 1.67.

Regarding `O=C1c2cc([N+](=O)[O-])cc3cc([N+](=O)[O-])cc(c23)C(=O)N1CCCCNCCCCNC1CCCCC1` [5b], the “SI (selectivity index) IC50 in HL-7702/IC50 in Snu-368” value in experiment [1] stood at 2.78. Moreover, the “SI (selectivity index) IC50 in HL-7702/IC50 in Snu-739” value in experiment [1] turned out to be 1.94. Besides, the IC50 in experiment [1] (setting [8]) came out at 7.56 ± 0.43 µM; in experiment [2] (Homo sapiens, MCF7), 1.25 ± 0.1 µM; in experiment [3] it was 2.27 ± 0.25 µM; in experiment [4] (Homo sapiens, A549), 1.75 ± 0.15 µM; in experiment [5] (Homo sapiens, MDA-MB-231), 1.07 ± 0.1 µM; in experiment [6], 2.72 ± 0.25 µM. Also, inhibition in experiment [7] (SNU-739) was half-maximal at 3.89 ± 0.35 µM (IC50). The “RF (resistance factor)” value in experiment [3] turned out to be 1.30.

For the molecule `Nc1cc2c3c(cc(N)cc3c1)C(=O)N(CCCCNCCCNC1CC1)C2=O` [7a], the IC50 in experiment [2] (Homo sapiens, MCF7) was 8.62 ± 0.85 µM; in experiment [3] it was 17.4 ± 1.68 µM; in experiment [4] (Homo sapiens, A549), 14 ± 1.39 µM; in experiment [5] (Homo sapiens, MDA-MB-231), 26.9 ± 2.65 µM; in experiment [6], greater than 30 µM; in experiment [7] (SNU-739), 25.8 ± 2.9 µM.

For `NCCCCNCCCCN1C(=O)c2cc(N)cc3cc(N)cc(c23)C1=O` [7b], the IC50 in experiment [2] (Homo sapiens, MCF7) is greater than 30 µM; in experiment [3] it was 17.3 ± 1.78 µM; in experiment [4] (Homo sapiens, A549), greater than 30 µM; in experiment [5] (Homo sapiens, MDA-MB-231) it was greater than 30 µM; in experiment [6] it was greater than 30 µM; in experiment [7] (SNU-739), greater than 30 µM.

For `NCCCNCCCNCCCN1C(=O)c2cc(N)cc3cc(N)cc(c23)C1=O` [11a], the IC50 in experiment [2] (Homo sapiens, MCF7) is 14.8 ± 1.45 µM; in experiment [3], 16.3 ± 1.69 µM; in experiment [4] (Homo sapiens, A549), 28.3 ± 2.85 µM; in experiment [5] (Homo sapiens, MDA-MB-231), 26 ± 2.56 µM; in experiment [6], greater than 50 µM; in experiment [7] (SNU-739) it was 9.69 ± 0.98 µM.

Consider `NCCCNCCCCNCCCN1C(=O)c2cc(N)cc3cc(N)cc(c23)C1=O` [11b], for which the half-maximal inhibitory concentration (IC50) in experiment [2] (Homo sapiens, MCF7) was 25.9 ± 2.56 µM; in experiment [3], 15.8 ± 1.58 µM; in experiment [4] (Homo sapiens, A549), greater than 30 µM; in experiment [5] (Homo sapiens, MDA-MB-231), greater than 30 µM; in experiment [6] it was greater than 30 µM; in experiment [7] (SNU-739), 23.2 ± 2.36 µM.

As for `CN(C)CCN1C(=O)c2cccc3cc(N)cc(c23)C1=O` [Amonafide, amonafide, reference compound], the “SI (selectivity index) IC50 in HL-7702/IC50 in Snu-368” value in experiment [1] is 0.83. Moreover, in experiment [1], the “SI (selectivity index) IC50 in HL-7702/IC50 in Snu-739” value is on record as 0.89. For the same molecule, the “SI (selectivity index), range over Snu-368 and Snu-739” value in experiment [1] is listed as 0.83–0.89. Moreover, the IC50 in experiment [1] (Homo sapiens, L02, normal liver cell, read-out: IC50 HL-7702) came to 11.6 ± 1.36 µM; in experiment [2] (Homo sapiens, MCF7) it was 5.89 ± 0.56 µM; in experiment [3] it was 11 ± 1.02 µM; in experiment [4] (Homo sapiens, A549), 6.89 ± 0.68 µM; in experiment [5] (Homo sapiens, MDA-MB-231), 14.9 ± 1.75 µM; in experiment [6] it was 14 ± 1.78 µM. The same molecule returned an IC50 in experiment [7] (SNU-739) of 13 ± 1.56 µM. Also, the “RF (resistance factor)” value in experiment [3] is reported as 1.59. In the experiment with HCC xenografts, the “tumor suppression (inhibition rate, tumor weight)” value was found to be 53.27%.

Take `N.N.[Cl][Pt][Cl]` [Cisplatin, cisplatin, reference compound]: the “SI (selectivity index) IC50 in HL-7702/IC50 in Snu-368” value in experiment [1] came out at 0.53. Also, the “SI (selectivity index) IC50 in HL-7702/IC50 in Snu-739” value in experiment [1] stood at 0.86. The “SI (selectivity index), range over Snu-368 and Snu-739” value in experiment [1] was 0.53–0.86. In addition, the IC50 worked out at 8.6 ± 0.2 µM in experiment [1] (normal liver cell, read-out: IC50 HL-7702); 9.6 ± 0.6 µM in experiment [2]; 40.4 ± 4.36 µM in experiment [3]; 11 ± 0.15 µM in experiment [4]; 16 ± 1.59 µM in experiment [5]; 16.4 ± 1.26 µM in experiment [6]. Inhibition in experiment [7] was half-maximal at 10 ± 1.23 µM (IC50). Besides, the “RF (resistance factor)” value in experiment [3] was 3.67.
